# In ChEMBL document CHEMBL4665624, “Synthesis of 5-(4-(1H-phenanthro[9,10-d]imidazol-2-yl)benzylidene)thiazolidine-2,4-dione as promising DNA and serum albumin-binding agents and evaluation of antitumor activity” (Eur J Med Chem, 2019):
# Key:
# OVCAR-3 = assay: Antitumor activity against human OVCAR-3 cells assessed as cell growth inhibition at 10 uM incubated for 48 hrs by sulforhodamine B assay; assay type: functional; conditions: read-out: GI
# RXF 393 = assay: Antitumor activity against human RXF 393 cells assessed as cell growth inhibition at 10 uM incubated for 48 hrs by sulforhodamine B assay; assay type: functional; conditions: read-out: GI
# M14 = assay: Antitumor activity against human M14 cells assessed as cell growth inhibition at 10 uM incubated for 48 hrs by sulforhodamine B assay; assay type: functional; conditions: read-out: GI
# SK-MEL-28 = assay: Antitumor activity against human SK-MEL-28 cells assessed as cell growth inhibition at 10 uM incubated for 48 hrs by sulforhodamine B assay; assay type: functional; conditions: read-out: GI
# SF-268 = assay: Antitumor activity against human SF268 cells assessed as cell growth inhibition at 10 uM incubated for 48 hrs by sulforhodamine B assay; assay type: functional; conditions: read-out: GI
# KM12 = assay: Antitumor activity against human KM12 cells assessed as cell growth inhibition at 10 uM incubated for 48 hrs by sulforhodamine B assay; assay type: functional; conditions: read-out: GI
# NCI-H522 = assay: Antitumor activity against human NCI-H522 cells assessed as cell growth inhibition at 10 uM incubated for 48 hrs by sulforhodamine B assay; assay type: functional; conditions: read-out: GI
# UO-31 = assay: Antitumor activity against human UO-31 cells assessed as cell growth inhibition at 10 uM incubated for 48 hrs by sulforhodamine B assay; assay type: functional; conditions: read-out: GI
# MDA-MB-468 = assay: Antitumor activity against human MDA-MB-468 cells assessed as cell growth inhibition at 10 uM incubated for 48 hrs by sulforhodamine B assay; assay type: functional; conditions: read-out: GI
# SN12C = assay: Antitumor activity against human SN12C cells assessed as cell growth inhibition at 10 uM incubated for 48 hrs by sulforhodamine B assay; assay type: functional; conditions: read-out: GI
# IGROV-1 = assay: Antitumor activity against human IGROV1 cells assessed as cell growth inhibition at 10 uM incubated for 48 hrs by sulforhodamine B assay; assay type: functional; conditions: read-out: GI
# OVCAR-4 = assay: Antitumor activity against human OVCAR-4 cells assessed as cell growth inhibition at 10 uM incubated for 48 hrs by sulforhodamine B assay; assay type: functional; conditions: read-out: GI
# HL-60(TB) = assay: Antitumor activity against human HL-60(TB) cells assessed as cell growth inhibition at 10 uM incubated for 48 hrs by sulforhodamine B assay; assay type: functional; conditions: read-out: GI
# MDA-MB-435 = assay: Antitumor activity against human MDA-MB-435 cells assessed as cell growth inhibition at 10 uM incubated for 48 hrs by sulforhodamine B assay; assay type: functional; conditions: read-out: GI
# 786-0 = assay: Antitumor activity against human 786-0 cells assessed as cell growth inhibition at 10 uM incubated for 48 hrs by sulforhodamine B assay; assay type: functional; conditions: read-out: GI
# UACC-62 = assay: Antitumor activity against human UACC-62 cells assessed as cell growth inhibition at 10 uM incubated for 48 hrs by sulforhodamine B assay; assay type: functional; conditions: read-out: GI
# MDA-MB-231 = assay: Antitumor activity against human MDA-MB-231/ATCC cells assessed as cell growth inhibition at 10 uM incubated for 48 hrs by sulforhodamine B assay; assay type: functional; conditions: read-out: GI
# SR = assay: Antitumor activity against human SR cells assessed as cell growth inhibition at 10 uM incubated for 48 hrs by sulforhodamine B assay; assay type: functional; conditions: read-out: GI
# BT-549 = assay: Antitumor activity against human BT-549 cells assessed as cell growth inhibition at 10 uM incubated for 48 hrs by sulforhodamine B assay; assay type: functional; conditions: read-out: GI
# NCI-H226 = assay: Antitumor activity against human NCI-H226 assessed as cell growth inhibition at 10 uM incubated for 48 hrs by sulforhodamine B assay; assay type: functional; conditions: read-out: GI
# K562 = assay: Antitumor activity against human K562 cells assessed as cell growth inhibition at 10 uM incubated for 48 hrs by sulforhodamine B assay; assay type: functional; conditions: read-out: GI
# NCI/ADR-RES = assay: Antitumor activity against human NCI/ADR-RES cells assessed as cell growth inhibition at 10 uM incubated for 48 hrs by sulforhodamine B assay; assay type: functional; conditions: read-out: GI
# Malme-3M = assay: Antitumor activity against human MALME-3M cells assessed as cell growth inhibition at 10 uM incubated for 48 hrs by sulforhodamine B assay; assay type: functional; conditions: read-out: GI
# COLO 205 = assay: Antitumor activity against human COLO205 cells assessed as cell growth inhibition at 10 uM incubated for 48 hrs by sulforhodamine B assay; assay type: functional; conditions: read-out: GI
# NCI-H23 = assay: Antitumor activity against human NCI-H23 cells assessed as cell growth inhibition at 10 uM incubated for 48 hrs by sulforhodamine B assay; assay type: functional; conditions: read-out: GI
# CCRF-CEM = assay: Antitumor activity against human CCRF-CEM cells assessed as cell growth inhibition at 10 uM incubated for 48 hrs by sulforhodamine B assay; assay type: functional; conditions: read-out: GI
# Hs-578T = assay: Antitumor activity against human HS 578T cells assessed as cell growth inhibition at 10 uM incubated for 48 hrs by sulforhodamine B assay; assay type: functional; conditions: read-out: GI
# LOX IMVI = assay: Antitumor activity against human LOX IMVI cells assessed as cell growth inhibition at 10 uM incubated for 48 hrs by sulforhodamine B assay; assay type: functional; conditions: read-out: GI
# MOLT-4 = assay: Antitumor activity against human MOLT4 cells assessed as cell growth inhibition at 10 uM incubated for 48 hrs by sulforhodamine B assay; assay type: functional; conditions: read-out: GI
# ACHN = assay: Antitumor activity against human ACHN cells assessed as cell growth inhibition at 10 uM incubated for 48 hrs by sulforhodamine B assay; assay type: functional; conditions: read-out: GI
# U-251 = assay: Antitumor activity against human U251 cells assessed as cell growth inhibition at 10 uM incubated for 48 hrs by sulforhodamine B assay; assay type: functional; conditions: read-out: GI
# A498 = assay: Antitumor activity against human A498 cells assessed as cell growth inhibition at 10 uM incubated for 48 hrs by sulforhodamine B assay; assay type: functional; conditions: read-out: GI
# HT-29 = assay: Antitumor activity against human HT-29 cells assessed as cell growth inhibition at 10 uM incubated for 48 hrs by sulforhodamine B assay; assay type: functional; conditions: read-out: GI
# EKVX = assay: Antitumor activity against human EKVX cells assessed as cell growth inhibition at 10 uM incubated for 48 hrs by sulforhodamine B assay; assay type: functional; conditions: read-out: GI
# HCT-116 = assay: Antitumor activity against human HCT116 cells assessed as cell growth inhibition at 10 uM incubated for 48 hrs by sulforhodamine B assay; assay type: functional; conditions: read-out: GI
# SNB-19 = assay: Antitumor activity against human SNB-19 cells assessed as cell growth inhibition at 10 uM incubated for 48 hrs by sulforhodamine B assay; assay type: functional; conditions: read-out: GI
# HOP-92 = assay: Antitumor activity against human HOP92 cells assessed as cell growth inhibition at 10 uM incubated for 48 hrs by sulforhodamine B assay; assay type: functional; conditions: read-out: GI
# NCI-H460 = assay: Antitumor activity against human NCI-H460 assessed as cell growth inhibition at 10 uM incubated for 48 hrs by sulforhodamine B assay; assay type: functional; conditions: read-out: GI
# RPMI-8226 = assay: Antitumor activity against human RPMI8226 cells assessed as cell growth inhibition at 10 uM incubated for 48 hrs by sulforhodamine B assay; assay type: functional; conditions: read-out: GI
# SK-OV-3 = assay: Antitumor activity against human SK-OV-3 cells assessed as cell growth inhibition at 10 uM incubated for 48 hrs by sulforhodamine B assay; assay type: functional; conditions: read-out: GI
# MCF7 = assay: Antitumor activity against human MCF7 cells assessed as cell growth inhibition at 10 uM incubated for 48 hrs by sulforhodamine B assay; assay type: functional; conditions: read-out: GI
# SNB-75 = assay: Antitumor activity against human SNB-75 cells assessed as cell growth inhibition at 10 uM incubated for 48 hrs by sulforhodamine B assay; assay type: functional; conditions: read-out: GI
# PC-3 = assay: Antitumor activity against human PC-3 cells assessed as cell growth inhibition at 10 uM incubated for 48 hrs by sulforhodamine B assay; assay type: functional; conditions: read-out: GI
# SW-620 = assay: Antitumor activity against human SW620 cells assessed as cell growth inhibition at 10 uM incubated for 48 hrs by sulforhodamine B assay; conditions: SW-620, 48 h, read-out: GI
# SF-295 = assay: Antitumor activity against human SF295 cells assessed as cell growth inhibition at 10 uM incubated for 48 hrs by sulforhodamine B assay; assay type: functional; conditions: read-out: GI
# HCC 2998 = assay: Antitumor activity against human HCC2998 cells assessed as cell growth inhibition at 10 uM incubated for 48 hrs by sulforhodamine B assay; assay type: functional; conditions: read-out: GI
# OVCAR-8 = assay: Antitumor activity against human OVCAR-8 cells assessed as cell growth inhibition at 10 uM incubated for 48 hrs by sulforhodamine B assay; assay type: functional; conditions: read-out: GI
# HCT-15 = assay: Antitumor activity against human HCT15 cells assessed as cell growth inhibition at 10 uM incubated for 48 hrs by sulforhodamine B assay; assay type: functional; conditions: read-out: GI
compound,measurement,setting,value
Oc1ccccc1-c1nc2c3ccccc3c3ccccc3c2[nH]1,inhibition of growth at 10 µM,OVCAR-3,< 10%
same,inhibition of growth at 10 µM,RXF 393,< 10%
same,inhibition of growth at 10 µM,M14,< 10%
same,inhibition of growth at 10 µM,SK-MEL-28,< 10%
same,inhibition of growth at 10 µM,SF-268,< 10%
same,inhibition of growth at 10 µM,KM12,< 10%
same,inhibition of growth at 10 µM,NCI-H522,< 10%
same,inhibition of growth at 10 µM,UO-31,37.9%
same,inhibition of growth at 10 µM,MDA-MB-468,< 10%
same,inhibition of growth at 10 µM,SN12C,24.4%
same,inhibition of growth at 10 µM,IGROV-1,23.5%
same,inhibition of growth at 10 µM,OVCAR-4,< 10%
same,inhibition of growth at 10 µM,HL-60(TB),< 10%
same,inhibition of growth at 10 µM,MDA-MB-435,< 10%
same,inhibition of growth at 10 µM,786-0,< 10%
same,inhibition of growth at 10 µM,UACC-62,10.1%
same,inhibition of growth at 10 µM,MDA-MB-231,23.8%
same,inhibition of growth at 10 µM,SR,10.8%
same,inhibition of growth at 10 µM,BT-549,< 10%
same,inhibition of growth at 10 µM,NCI-H226,11.6%
same,inhibition of growth at 10 µM,K562,12.1%
same,inhibition of growth at 10 µM,NCI/ADR-RES,< 10%
same,inhibition of growth at 10 µM,Malme-3M,< 10%
same,inhibition of growth at 10 µM,COLO 205,< 10%
same,inhibition of growth at 10 µM,NCI-H23,10.7%
same,inhibition of growth at 10 µM,CCRF-CEM,< 10%
same,inhibition of growth at 10 µM,Hs-578T,< 10%
same,inhibition of growth at 10 µM,LOX IMVI,< 10%
same,inhibition of growth at 10 µM,MOLT-4,< 10%
same,inhibition of growth at 10 µM,ACHN,11.7%
same,inhibition of growth at 10 µM,U-251,< 10%
same,inhibition of growth at 10 µM,A498,< 10%
same,inhibition of growth at 10 µM,HT-29,< 10%
same,inhibition of growth at 10 µM,EKVX,19.4%
same,inhibition of growth at 10 µM,HCT-116,12.3%
same,inhibition of growth at 10 µM,SNB-19,< 10%
same,inhibition of growth at 10 µM,HOP-92,16.4%
same,inhibition of growth at 10 µM,NCI-H460,< 10%
same,inhibition of growth at 10 µM,RPMI-8226,13.3%
same,inhibition of growth at 10 µM,SK-OV-3,< 10%
same,inhibition of growth at 10 µM,MCF7,26.3%
same,inhibition of growth at 10 µM,SNB-75,11.1%
same,inhibition of growth at 10 µM,PC-3,11.8%
same,inhibition of growth at 10 µM,SW-620,< 10%
same,inhibition of growth at 10 µM,SF-295,< 10%
same,inhibition of growth at 10 µM,HCC 2998,< 10%
same,inhibition of growth at 10 µM,OVCAR-8,< 10%
same,inhibition of growth at 10 µM,HCT-15,< 10%
